Test results from ChEMBL document CHEMBL5532696, “Discovery of new tricyclic spiroindole derivatives as potent P-glycoprotein inhibitors for reversing multidrug resistance enabled by a synthetic methodology-based library” (RSC Med Chem, 2024).

Key:
[1] = test system: Eca-109/VCR; assay: Reversal of vincristine resistance in human Eca-109/VCR cells assessed as reduction in cell viability incubated for 48 hrs by CCK-8 assay; type: functional, cell-based
[2] = test system: ECa-109 cell line; assay: Antiproliferative activity against human Eca-109 cells assessed as reduction in cell viability incubated for 48 hrs by CCK-8 assay; type: functional, cell-based; details: ECa-109, 48 h
[3] = test system: Eca-109/VCR; assay: Antiproliferative activity against human Eca-109/VCR cells assessed as cell viability at 5 uM incubated for 48 hrs by CCK-8 assay (reference value: 100 +/- 1.8%); type: functional; details: read-out: Activity
[4] = test system: Eca-109/VCR; assay: Reversal of vincristine resistance in human Eca-109/VCR cells assessed as reversal fold by measuring ratio of vincristine IC50 to vincristine IC50 in presence of test compound at 5 uM incubated for 48 hrs by CCK8 assay; type: functional

Structure (SMILES) | IC50 [1] | IC50 [2] | viability at 5 µM [3] | Ratio IC50 [4]
O=C1c2c(O)ccc(O)c2C(=O)c2c(NCCNCCO)ccc(NCCNCCO)c21 [MITOXANTRONE] | 5.87 µM | 0.646 µM | – | –
CC(=O)O[C@@]12CO[C@@H]1C[C@H](O)[C@@]1(C)C(=O)[C@H](O)C3=C(C)[C@@H](OC(=O)[C@H](O)[C@@H](NC(=O)OC(C)(C)C)c4ccccc4)C[C@@](O)([C@@H](OC(=O)c4ccccc4)[C@H]21)C3(C)C [DOCETAXEL ANHYDROUS] | 9.73 µM | 0.773 µM | – | –
CN1C(=O)C2(c3ncccc31)C(C(=O)OC(C)(C)C)C1c3ccc([N+](=O)[O-])cc3C(=O)C1C2c1ccccc1 (stereo unspecified) | – | – | 104% | 33.6
CCOC(=O)C1C2c3ccc([N+](=O)[O-])cc3C(=O)C2C(c2cccc(OC)c2)C12C(=O)N(C)c1ccccc12 (stereo unspecified) | – | – | 99.7% | 3
CN1C(=O)C2(c3cc(Br)ccc31)C(C(=O)OC(C)(C)C)C1c3ccc([N+](=O)[O-])cc3C(=O)C1C2c1ccccc1 (stereo unspecified) | – | – | 105% | 2.9
O=C1c2cc([N+](=O)[O-])ccc2C2C1C(c1ccccc1)C(C(=O)c1ccccc1)C2C(F)(F)F (stereo unspecified) | – | – | 56.3% | –
O=C1c2cc([N+](=O)[O-])ccc2C2C1C(c1ccccc1)C([N+](=O)[O-])C2c1ccccc1 (stereo unspecified) | – | – | 78.2% | 49.9
CN1C(=O)C2(c3ccccc31)C(C(=O)OC(C)(C)C)C1c3ccc([N+](=O)[O-])cc3C(=O)C1C2c1ccccc1 (stereo unspecified) | – | – | 103% | 56.1
CCOC(=O)C1C2c3ccc([N+](=O)[O-])cc3C(=O)C2C(c2ccc(C(F)(F)F)cc2)C12C(=O)N(C)c1ccccc12 (stereo unspecified) | – | – | 97.9% | 39.2
CCOC(=O)C1C2c3ccc(-n4cc(-c5ccccc5)nn4)cc3C(=O)C2C(c2ccccc2)C12C(=O)N(C)c1ccccc12 (stereo unspecified) | – | – | 98.9% | 56.1
CCOC(=O)C1C2c3ccc(Br)cc3C(=O)C2C(c2ccccc2)C12C(=O)N(C)c1ccccc12 (stereo unspecified) | – | – | 100% | 16.7
CCOC(=O)C1C2c3ccc([N+](=O)[O-])cc3C(=O)C2C(c2ccccc2)C12C(=O)N(C)c1ccccc12 (stereo unspecified) | – | – | 102% | 86.8
O=C1c2cc([N+](=O)[O-])ccc2C2C1C(c1ccccc1)C1(Oc3ccccc3C1=O)C2c1ccccc1 (stereo unspecified) | – | – | 99.1% | 15.2
CCOC(=O)C1C2c3ccc([N+](=O)[O-])cc3C(=O)C2C(c2ccccc2)C12C(=O)N(C)c1c(C)cc(C)cc12 (stereo unspecified) | – | – | 89.7% | 2.3
CCOC(=O)C1C2c3ccc([N+](=O)[O-])cc3C(=O)C2C(c2ccccc2)C12C(=O)N(C)c1ccc(OC)cc12 (stereo unspecified) | – | – | 99.4% | 16.4
CCOC(=O)C1C2c3ccc([N+](=O)[O-])cc3C(=O)C2C(c2ccc(Br)cc2)C12C(=O)N(C)c1ccccc12 (stereo unspecified) | – | – | 85.1% | 11.7
CN1C(=O)C2(c3cc(Cl)ccc31)C(C(=O)OC(C)(C)C)C1c3ccc([N+](=O)[O-])cc3C(=O)C1C2c1ccccc1 (stereo unspecified) | – | – | 98.2% | 388.1
CCOC(=O)C1C2c3ccc([N+](=O)[O-])cc3C(=O)C2C(C2CC2)C12C(=O)N(C)c1ccccc12 (stereo unspecified) | – | – | 96.2% | 2.5

Structure (SMILES) | IC50 [1] | IC50 [2] | viability at 5 µM [3] | Ratio IC50 [4]
CCOC(=O)C1C2c3ccc([N+](=O)[O-])cc3C(=O)C2C(c2ccc(C)cc2)C12C(=O)N(C)c1ccccc12 (stereo unspecified) | – | – | 102% | 24.7
O=C1c2cc([N+](=O)[O-])ccc2C2C1C(c1ccccc1)C1(Cc3ccccc3C1=O)C2c1ccccc1 (stereo unspecified) | – | – | 85.2% | 34.8
COC(=O)C1C(C(=O)c2ccccc2)C(c2ccccc2)C2C(=O)c3cc([N+](=O)[O-])ccc3C12 (stereo unspecified) | – | – | 75.2% | 12.3
CN1C(=O)C2(c3cc(Cl)ccc31)C(C(=O)NC(C)(C)C)C1c3ccc([N+](=O)[O-])cc3C(=O)C1C2c1ccccc1 (stereo unspecified) | – | – | 97.5% | 659.1
CCOC(=O)C1C2c3ccc([N+](=O)[O-])cc3C(=O)C2C(c2ccccc2)C12C(=O)N(C)c1cc(OC)ccc12 (stereo unspecified) | – | – | 90.5% | 53.2
CCOC(=O)C1C2c3c(cccc3[N+](=O)[O-])C(=O)C2C(c2ccccc2)C12C(=O)N(C)c1ccccc12 (stereo unspecified) | – | – | 102% | 10.5
COc1cc2c(c(OC)c1OC)-c1ccc(OC)c(=O)cc1[C@@H](NC(C)=O)CC2 [COLCHICINE] | 3.63 µM | 0.012 µM | – | –
CN1C(=O)C2(c3cc(F)ccc31)C(C(=O)OC(C)(C)C)C1c3ccc([N+](=O)[O-])cc3C(=O)C1C2c1ccccc1 (stereo unspecified) | – | – | 101% | 6.6
CCOC(=O)C1C2c3ccc([N+](=O)[O-])cc3C(=O)C2C(c2ccccc2)C12C(=O)N(C)c1ccc(OC(F)(F)F)cc12 (stereo unspecified) | – | – | 91.9% | 1.7
CN1C(=O)C2(c3cccc(Br)c31)C(C(=O)OC(C)(C)C)C1c3ccc([N+](=O)[O-])cc3C(=O)C1C2c1ccccc1 (stereo unspecified) | – | – | 99.8% | 38.6
CS(=O)(=O)CCNCc1ccc(-c2ccc3ncnc(Nc4ccc(OCc5cccc(F)c5)c(Cl)c4)c3c2)o1 [LAPATINIB] | 6.69 µM | 9.16 µM | – | –
O=C1c2cc([N+](=O)[O-])ccc2C2C1C(c1ccccc1)C1(C(=O)c3ccccc3C1=O)C2c1ccccc1 (stereo unspecified) | – | – | 96.6% | 57.1
COc1cccc2c1C(=O)c1c(O)c3c(c(O)c1C2=O)C[C@@](O)(C(=O)CO)C[C@@H]3O[C@H]1C[C@H](N)[C@H](O)[C@H](C)O1 [DOXORUBICIN] | 20.2 µM | 2.07 µM | – | –
CCOC(=O)C1C2c3ccc([N+](=O)[O-])cc3C(=O)C2C(c2cccc(C)c2)C12C(=O)N(C)c1ccccc12 (stereo unspecified) | – | – | 102% | 56.7
CCOC(=O)C1C2c3ccc([N+](=O)[O-])cc3C(=O)C2C(c2ccccc2C)C12C(=O)N(C)c1ccccc12 (stereo unspecified) | – | – | 92.2% | 14.7
CCOC(=O)C1C2c3ccc([N+](=O)[O-])cc3C(=O)C2C(c2ccccc2Br)C12C(=O)N(C)c1ccccc12 (stereo unspecified) | – | – | 96.4% | 1.8
CCOC(=O)C1C2c3ccc([N+](=O)[O-])cc3C(=O)C2C(c2ccccc2)C12C(=O)N(C)c1c(C)cccc12 (stereo unspecified) | – | – | 102% | 38.9
CCOC(=O)C1C2c3ccc([N+](=O)[O-])cc3C(=O)C2C(c2ccco2)C12C(=O)N(C)c1ccccc12 (stereo unspecified) | – | – | 102% | 12.7
